In article PMC6581936, “Impact of Intracellular Concentrations on Metabolic Drug-Drug Interaction Studies” (The AAPS Journal, 2019):
“And” between values parts separate entries of the source, which are not always exact repeats. Equal entries are not always repeated. Where two headings read alike, the source gives them in different places.

Assays:
[1] = Intracellular unbound drug accumulation ratio (Kpuu) in suspended HH; assay type: in vitro ADME, human; settings: for Kp uu: human, suspended human hepatocytes; for Kp uu / Kpuu: suspended HH; for Kpuu: Kp x fu,cell, reference compounds
Procedure: Kpuu was determined as previously described ([7],[18]) using Eq. (1):
1 Kpuu=Kp∙fu,cell/fu,medium where Kp is the steady-state cellular uptake, and fu,cell the fraction of unbound compound in the cell, determined as described below. The fraction unbound of the compound in the medium (fu,medium) was equal to 1 as no serum proteins or other drug binding components were added to the incubation media.

[2] = Papp of RO compounds; assay type: in vitro ADME; settings: not told, method not stated
Source text: Table II Properties of the RO Discovery Compound Series and Results in HLM and Suspended HH | column: Papp (× 10^−6 cm/s)

[3] = Steady-state cellular uptake (Kp) in suspended HH; assay type: in vitro ADME; settings: human, suspended human hepatocytes; for Kp at 5 min, 0.5 μM: RO compounds, parameters matched to the IC50 assay
Procedure: The Kp in suspended HH was measured similarly to previous reports with some modifications ([7],[18]). Briefly, cells were rinsed twice with […] 10 mM HEPES. One hundred microliters of cell suspension (5 × 10^6 cells/mL) was added to a conical 96-well plate, and 100 μL of 1 μM drug solutions in Hank’s buffered salt solution (HBSS) buffered with 10 mM HEPES was added (resulting in a 0.5 μM final concentration). All incubations were performed in triplicates on up to three independent occasions. Full-time curves were established at 1, 3, 7.5, 15, 30, and 45 min to determine Kp at equilibrium. For single time point measurements, the incubation time was matched to the CYP inhibition assays. A sample of the medium was removed after centrifugation in a pre-cooled centrifuge at 4°C (100×g, 5 min), and ten-fold diluted with a mixture of acetonitrile and water (60:40) containing the internal standard for determination of Cmedium. The remaining supernatant was removed by aspiration and cells were washed twice with ice-cold buffer. The intracellular compound was extracted using the acetonitrile to water to internal standard mixture for determination of the amount of drug in the cells (Acell). Protein content (Pcell) was quantified using the BCA assay in representative wells to establish the cellular volume (Vcell), assuming 6.5 μL/mg protein ([23]). Finally, Kp was calculated using Eq. (2)2 Kp=Acell/Vcell∙Pcell/Cmedium

[4] = pKa of RO compounds; assay type: physicochemical; settings: method not stated
Source text: Table II Properties of the RO Discovery Compound Series and Results in HLM and Suspended HH | column: pKa

[5] = Fraction unbound in the cell (fu,cell), homogenization method/equilibrium dialysis; assay type: in vitro ADME, human; settings: HH homogenate; for fraction unbound at 4 h, 0.5 μM / fraction unbound at 0.5 μM: human, human hepatocyte cell homogenate
[6] = Fraction unbound to microsomes (fu,mic), equilibrium dialysis, HLM 0.2 mg/mL; settings: both, human
[7] = Kpuu in rat hepatocytes derived from literature Kp; assay type: in vitro ADME; settings: literature rat Kp x experimental (human) fu,cell
[8] = Kp and mass balance in HH in presence and absence of CYP inhibitor ABT; assay type: in vitro ADME, human; settings: for mass balance: hepatocyte experiments, without ABT
Procedure: S 4 Kp in presence of metabolic inhibitor ABT
A batch of HH derived from a single donor and a pooled batch were each used to measure Kp at 45
minutes in presence and absence of the CYP inhibitor ABT.[1]
Time curves over 45 minutes were established in plated HH. […]

[9] = set-up: method as in Brown et al, DMD, 2010; settings: rat; calculated from Kilford et al. (2008); ref Brown et al, DMD, 2010; cited from earlier work
[10] = set-up: method as in Brown et al, DMD, 2010; settings: rat hepatocytes; ref Brown et al, DMD, 2010; cited from earlier work
[11] = Intracellular unbound drug accumulation ratio (Kpuu) in suspended HH; assay type: in vitro ADME; settings: human, human hepatocytes, pH partitioning theory, read-out: calculated cytosolic Kpuu (or Fcyto)
[12] = test system: CYP3A4; settings: read-out: Ki (Ki,app); RLM; MDZ/1'-OH; ref [2] Brown et al., Drug Metab Dispos 2010; cited from earlier work
[13] = set-up: method as in Brown et al., Drug Metab Dispos 2010; settings: rat liver microsomes; ref Brown et al., Drug Metab Dispos 2010; cited from earlier work
[14] = test system: CYP3A4; set-up: method as in earlier work; settings: RH; MDZ/1'-OH; ref [2] Brown et al., Drug Metab Dispos 2010; read-out: Ki (Ki,app); cited from earlier work
[15] = test system: CYP2C9; experiment: CYP2C9 inhibition assay in HLM and HH (diclofenac); assay type: biochemical, human; settings: diclofenac as substrate
Procedure: After the addition of 20 μL of 10 mM NADPH, the plate was incubated for 5 min. The reaction was stopped by adding 200 μL of acetonitrile containing an internal standard. After centrifugation of 10 min at 6200×g, the concentration of the substrate in the samples was determined by LC-MS (Sciex API4000, see S6 for LC-MS parameters).
(§1) For HH, 50 μL of a suspension of cryopreserved HH (3 × 10^6 cells/mL) were added to a 96-well round bottom plate and pre-incubated for 20 min in Williams E medium (without FBS). Fifty microliters of a × 3 concentrated test compound-solution and 50 μL of × 3 concentrated substrate (diclofenac for CYP2C9, midazolam for CYP3A4 and tacrine for CYP1A2) were added and the plate was incubated on a shaker at 37°C, 5% CO2, and 900 rpm. Incubations were stopped after 5 min by transferring 100 μL of the suspension to a fresh plate and adding 100 μL of acetonitrile containing the internal standard and then analyzed as above.

[16] = test system: CYP1A2; set-up: method as in earlier work; settings: RLM; TPH/1,3-DMU; ref [2] Brown et al., Drug Metab Dispos 2010; read-out: Ki (Ki,app); cited from earlier work
[17] = test system: CYP1A2; set-up: method as in earlier work; settings: RH; TPH/1,3-DMU; ref [2] Brown et al., Drug Metab Dispos 2010; read-out: Ki (Ki,app); cited from earlier work
[18] = target: T1, CYP1A2 (Homo sapiens, UniProt P05177); experiment: CYP1A2 inhibition in suspended HH; assay type: cell-based; settings: TCR/1'-OH, source [3] In house
Procedure: as §1

[19] = target: T1, CYP1A2; experiment: CYP1A2 inhibition in HLM; assay type: biochemical; settings: average values from table S1; read-out: IC50,app HLM
[20] = cited from earlier work
[21] = azole series (itraconazole 24 h dialysis)

T1 sequence (P05177 whole entry): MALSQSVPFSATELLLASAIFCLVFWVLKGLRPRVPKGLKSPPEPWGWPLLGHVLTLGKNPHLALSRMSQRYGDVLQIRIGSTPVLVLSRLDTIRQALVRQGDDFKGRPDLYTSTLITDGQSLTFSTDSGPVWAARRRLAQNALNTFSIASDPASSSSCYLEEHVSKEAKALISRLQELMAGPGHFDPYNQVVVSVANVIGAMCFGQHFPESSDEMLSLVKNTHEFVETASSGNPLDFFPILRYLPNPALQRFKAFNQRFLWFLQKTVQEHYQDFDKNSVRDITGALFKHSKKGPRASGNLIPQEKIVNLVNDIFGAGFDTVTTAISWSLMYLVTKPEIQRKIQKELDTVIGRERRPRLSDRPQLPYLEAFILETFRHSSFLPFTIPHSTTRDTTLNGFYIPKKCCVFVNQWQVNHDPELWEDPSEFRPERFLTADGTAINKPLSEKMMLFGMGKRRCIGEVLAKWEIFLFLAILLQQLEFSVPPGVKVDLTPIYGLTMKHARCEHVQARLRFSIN

SMILES | Kp uu ([1]; RO compounds) | Papp [2] [×10⁻⁶ cm/s] | Kp at 5 min, 0.5 μM [3] | pKa [4] | fraction unbound at 4 h, 0.5 μM ([5]; RO compounds) | fraction unbound at 4 h, 0.5 μM ([6]; human liver microsomes) | further results
CC[C@H]1OC(=O)[C@H](C)[C@@H](O[C@H]2C[C@@](C)(OC)[C@@H](O)[C@H](C)O2)[C@H](C)[C@@H](O[C@@H]2O[C@H](C)C[C@H](N(C)C)[C@H]2O)[C@](C)(OC)C[C@@H](C)C(=O)[C@H](C)[C@@H](O)[C@]1(C)O [Clarithromycin] | – | – | – | – | – | […] | Kp uu [7]: 2.27 ± 0.28; mass balance ([8]; suspended HH): […]; fu,cell [9]: 0.86; Kpuu [1]: […]; Kpuu ([1]; listed as clarithromycin): […]; Kp [10]: 22; Kp at 0.5 μM ([3]; 0.5 μM, reference compounds): 25.9 ± 2.1; Kp uu [11]: 1.3; Ki [12]: […]; fraction unbound at 4 h, 0.5 μM ([5]; 0.5 μM, reference compounds): […]; fu,mic [13]: 0.81; Ki [14]: […]
COCc1oc(S(=O)(=O)NC(=O)Nc2nc(C)c(Br)s2)cc1C [RO04] | 0.46 ± 0.65 | 13 | 27.6 ± 26.1 | 2.8 | 0.02 ± 0.01 | 0.45 ± 0.11 | difference of IC50,app between HH and HLM [15]: identical
CC(=O)N1CCN(c2ccc(OCC3COC(Cn4ccnc4)(c4ccc(Cl)cc4Cl)O3)cc2)CC1 (stereo not shown) [Ketoconazole, reference compound] | – | – | – | – | – | – | fraction unbound at 0.5 μM [5, 21]: 0.004 ± 0.001; fraction unbound at 0.5 μM ([6]; microsomes): 0.32 ± 0.12
Cc1c(O)cccc1C(=O)N[C@@H](CSc1ccccc1)[C@H](O)CN1C[C@H]2CCCC[C@H]2C[C@H]1C(=O)NC(C)(C)C [Nelfinavir] | – | – | – | – | – | 0.04 ± 0.02 | Kp in presence or absence of ABT ([8]; HH, 45 minutes): unaffected; change of mass balance upon addition of ABT ([8]; suspended HH, 45 minutes): approximately doubled; fu,cell [9]: 0.035; Kpuu with wash buffers at 4 and 37°C, with and without albumin ([1]; 45 minutes, except 4°C without albumin vs 37°C containing albumin): did not differ; Kp [10]: 3352; Ki [12]: […]; fu,cell ([5]; 0.5 μM, reference compounds): 0.00025 ± 0.00005; fraction unbound at 4 h, 0.5 μM ([5]; 0.5 μM, reference compounds): 0.0002; fu,mic [13]: 0.022; Ki [14]: […]
CCC(C)n1ncn(-c2ccc(N3CCN(c4ccc(OCC5COC(Cn6cncn6)(c6ccc(Cl)cc6Cl)O5)cc4)CC3)cc2)c1=O (stereo not shown) [Itraconazole, reference compound] | – | – | – | – | – | – | Kp uu ([1]; azole series): 7.5 ± 6.3; Kp at 0.5 μM ([3]; azole series): 2720 ± 1570; fu,cell [5, 21]: 0.003 ± 0.002; fraction unbound at 0.5 μM ([6]; human liver microsomes): 0.21 ± 0.13
CCn1cc(C(=O)O)c(=O)c2cc(F)c(N3CCNCC3)nc21 [Enoxacin] | – | – | – | – | – | 0.53 ± 0.13 | Kp uu [7]: 20; mass balance ([8]; suspended HH): ~ 100%; fu,cell [9]: 0.99; Ki [16]: 2.8 ± 1.2 mM; Kp [10]: 20; Kp at 0.5 μM ([3]; 0.5 μM, reference compounds): 7.4 ± 1.1; fraction unbound at 4 h, 0.5 μM ([5]; 0.5 μM, reference compounds): 1; fu,mic [13]: 0.99; Ki [17]: 120 ± 65 µM; IC50 [18]: 422 ± 93 µM; IC50 [19]: 2.14 ± 0.37 mM
CO[C@H]1/C=C/O[C@@]2(C)Oc3c(C)c(O)c4c(O)c(c(/C=N/N5CCN(C)CC5)c(O)c4c3C2=O)NC(=O)/C(C)=C\C=C\[C@H](C)[C@H](O)[C@@H](C)[C@@H](O)[C@@H](C)[C@H](OC(C)=O)[C@@H]1C [rifampicin] | – | – | – | – | – | – | empirical hepatic uptake scalar [20]: 16.9
CC[C@@H]([C@H](C)O)n1ncn(-c2ccc(N3CCN(c4ccc(OC[C@@H]5CO[C@@](Cn6cncn6)(c6ccc(F)cc6F)C5)cc4)CC3)cc2)c1=O [Posaconazole, reference compound] | – | – | – | – | – | – | Kp uu ([1]; azole series): 37.6 ± 12.8; Kp at 0.5 μM ([3]; azole series): 6930 ± 1240; fraction unbound at 0.5 μM [5, 21]: 0.005 ± 0.003; fraction unbound at 0.5 μM ([6]; human liver microsomes): 0.21 ± 0.11

Second part, led by results:

Kp uu ([1]; RO compounds) | Papp [2] [×10⁻⁶ cm/s] | Kp at 5 min, 0.5 μM [3] | pKa [4] | fraction unbound at 4 h, 0.5 μM ([5]; RO compounds) | fraction unbound at 4 h, 0.5 μM ([6]; human liver microsomes) | SMILES | further results
0.039 ± 0.003 | 2 | 18.5 ± 4.4 | 2.76 | 0.0021 ± 0.0003 | 0.23 ± 0.02 | O=C(Nc1ncc(Br)s1)NS(=O)(=O)c1cc2cccc(Cl)c2s1 [RO05] | –
0.0613 ± 0.0002 | 2 | 47.3 ± 1.1 | 3.14 | 0.0013 ± 7e-05 | 0.36 ± 0.09 | Cc1cccc2cc(S(=O)(=O)NC(=O)Nc3ncc(Br)s3)sc12 [RO02] | –
0.3 ± 0.08 | 9 | 17.9 ± 8.9 | 2.91 | 0.017 ± 0.001 | 0.41 ± 0.03 | COCc1oc(S(=O)(=O)NC(=O)Nc2ncc(Br)s2)cc1C [RO03] | difference of IC50,app between HH and HLM [15]: identical
0.21 ± 0.05 | 22 | 22.2 ± 4.3 | 2.66 | 0.009 ± 0.004 | 0.41 ± 0.09 | Cc1cccc(S(=O)(=O)NC(=O)Nc2snc(C)c2Br)c1 [RO08] | –
0.088 ± 0.003 | 2 | 11.7 ± 2 | 2.49 | 0.0075 ± 0.0006 | 0.97 ± 0.41 | COCCc1sc(S(=O)(=O)NC(=O)Nc2snc(C)c2Br)cc1C [RO09] | difference of IC50,app between HH and HLM [15]: 12 fold
0.357 ± 0.003 | 10 | 24 ± 2.2 | 5.41 | 0.0149 ± 0.0003 | 0.42 ± 0.06 | Cc1cccc(S(=O)(=O)NC(=O)Nc2cc(Br)cc(N)n2)c1 [RO01] | difference of IC50,app between HH and HLM [15]: identical
0.16 ± 0.01 | 4 | 41.9 ± 4.8 | 3.17 | 0.00392 ± 3e-05 | 0.84 ± 0.06 | COc1cc(C)c(-c2sc(S(=O)(=O)NC(=O)Nc3ncc(Br)s3)cc2C)cn1 [RO07] | –
0.24 ± 0.1 | 3 | 61.6 ± 38.6 | 2.8 | 0.0039 ± 0.0003 | 0.36 ± 0.11 | Cn1c(S(=O)(=O)NC(=O)Nc2ncc(Br)s2)cc2ccccc21 [RO06] | –
